The values that follow come from patent publication US20260027258A1, “Antimicrobial Compositions” (Matoke Holdings Limited, priority 2022, published 2026).

≈ marks a conversion by molar mass, not a printed value.

The test system of data set [1] is strains of Candida causing VVC. Description: Yeast susceptibility testing, all Candida species tested (overall comparisons). As to conditions: versus all of the gel concentrations. In kind it is cell-based. As to the method: (§1) AST was used to determine a Minimum Inhibitory Concentration (MIC) value for each antifungal agent on each strain of Candida. Three comparator drugs were also tested. This allowed the effectiveness of RO-101 gel to be compared to common antifungal drugs often used to treat VVC. Antifungal agents and their concentrations were as follows: RO-101 gel (1×, 2×, 10×, 20×: 1×=0.005%, 2×=0.01%, 10×=0.05% and 20×=0.1% Gox) (1 to 500 mg/L), SurgihoneyRO (1 to 500 mg/L), RO-101 gel 0% negative control (0% Gox) (1 to 500 mg/L), Fluconazole (0.125 to 64 mg/L), Itraconazole (0.015 to 8 mg/L) and Amphotericin (0.015 to 8 mg/L). The EUCAST E.DEF 7.3.2 (EUCAST, 2022a) method for yeast susceptibility testing was followed where possible.
(§2) Stock solutions of drugs were prepared with RPMI 1640 medium with 2% glucose. This was prepared by dissolving 20.8 g of RPMI 1640 powder (Sigma, Cat. No. R-6504), 69.1 g of morpholinopropanesulfonic acid (MOPS) (Melford, Cat. No. B2003) and 36 g of glucose (Sigma, Cat. No. G7528) in 800 ml of pharmacy water (Appleton Woods). 10M sodium hydroxide (Sigma, S8045) was added to adjust the pH to 7, and then the RPMI was filter sterilised. De Man, Rogosa & Sharpe (MRS) broth was used to grow the Lactobacillus isolates. MRS broth was prepared by dissolving 51 g of MRS powder (Sigma, 69966) in 1 litre of pharmacy water. 1 ml of Tween 80 (Sigma, P8074) was then added. […]

The subject of data set [2] is C. albicans. Description: Yeast susceptibility testing (EUCAST E.DEF 7.3.2 broth microdilution), C. albicans. Type of data set: cell-based. As to conditions: Candida albicans; C. albicans isolates (n=5); 24 hours read; MIC = growth inhibited by ≥50% (Amphotericin ≥90%). The protocol: as §1, §2
Data set [3] concerns C. glabrata. Description: Yeast susceptibility testing (EUCAST E.DEF 7.3.2 broth microdilution), C. glabrata. In kind it is cell-based. As to conditions: Nakaseomyces glabratus, C. glabrata isolates (n=8), 24 hours read, MIC = growth inhibited by ≥50% (Amphotericin ≥90%). The protocol: as §1
(§3) Stock solutions of drugs were prepared with RPMI 1640 medium with 2% glucose. This was prepared by dissolving 20.8 g of RPMI 1640 powder (Sigma, Cat. No. R-6504), 69.1 g of morpholinopropanesulfonic acid (MOPS) (Melford, Cat. No. B2003) and 36 g of glucose (Sigma, Cat. No. G7528) in 800 ml of pharmacy water (Appleton Woods). 10M sodium hydroxide (Sigma, S8045) was added to adjust the pH to 7, and then the RPMI was filter sterilised. De Man, Rogosa & Sharpe (MRS) broth was used to grow the Lactobacillus isolates. MRS broth was prepared by dissolving 51 g of MRS powder (Sigma, 69966) in 1 litre of pharmacy water. 1 ml of Tween 80 (Sigma, P8074) was then added. The mixture was then sterilized by autoclaving at 121° C. for 15 minutes.
(§4) All yeast isolates selected were grown from high vaginal swab samples and were of the Candida genus. Species chosen included C. albicans (n=5), C. glabrata (n=8), C. krusei (n=4), C. tropicalis (n=3) and C. parapsilosis (n=4). These isolates were identified to a species level by testing for the presence of a germ tube, biochemical testing, what temperature the isolate grew in, the colour when streaked on chrome agar, and in some cases the isolates DNA was sequenced.
(§5) The isolates were streaked for single colonies on a SAB plate, using a sterile metal loop. They were then incubated at 35° C. for 48 hours prior to susceptibility testing. […]
In general terms: In broth dilution the organism is exposed to a series of concentrations in liquid medium.

For data set [4] the following is noted: at 20° C. and 1 atm; cited from earlier work.
For data set [5], the system named is C. krusei. Description: Yeast susceptibility testing (EUCAST E.DEF 7.3.2 broth microdilution), C. krusei. The settings on record: Pichia kudriavzevii, C. krusei isolates (n=4), 24 hours read, MIC = growth inhibited by ≥50%. In kind it is cell-based. As to the method: as §1, §3, §4, §5
The subject of data set [6] is C. parapsilosis. Description: Yeast susceptibility testing (EUCAST E.DEF 7.3.2 broth microdilution), C. parapsilosis. The settings on record: Lodderomyces parapsilosis, C. parapsilosis isolates (n=4), 24 hours read, MIC = growth inhibited by ≥50%. In kind it is cell-based. The protocol:
as §1, §3, §4, §5

Data set [7] deals with C. tropicalis. The data set is described as follows: Yeast susceptibility testing (EUCAST E.DEF 7.3.2 broth microdilution), C. tropicalis. Type of data set: cell-based. As to conditions: Candida tropicalis, C. tropicalis isolates (n=3), 24 hours read, MIC = growth inhibited by ≥50%. As to the method:
as §1, §2

As for `C[C@@H]1[C@H](O)[C@@H](C)/C=C/C=C/C=C/C=C/C=C/C=C/C=C/[C@H](O[C@@H]2O[C@H](C)[C@@H](O)[C@H](N)[C@@H]2O)C[C@@H]2O[C@](O)(C[C@@H](O)C[C@@H](O)[C@H](O)CC[C@@H](O)C[C@@H](O)CC(=O)O[C@H]1C)C[C@H](O)[C@H]2C(=O)O` [Amphotericin], the “MIC50, MIC90 and geometric means in comparison with RO-101 Gel” value in data set [1] was “lower MIC50, MIC90 and geometric means than all of the gel concentrations”. In data set [2], this compound came in with an MIC50 of 0.0625 µg/mL (≈ 0.0676 µM) and an MIC90 of 0.0625 µg/mL (≈ 0.0676 µM). In data set [3], this compound displayed an MIC50 of 0.0625 µg/mL (≈ 0.0676 µM) and an MIC90 of 0.125 µg/mL (≈ 0.135 µM). Also, in data set [3] (read-out: MIC geometric mean), the MIC came to 0.081 µg/mL (≈ 0.0877 µM).

For `O=C(CO)[C@@H](O)[C@H](O)[C@H](O)CO` [Fructose], in data set [4], the solubility result is “about 375 g/100 g water”.

Take `CCC(C)n1ncn(-c2ccc(N3CCN(c4ccc(OCC5COC(Cn6cncn6)(c6ccc(Cl)cc6Cl)O5)cc4)CC3)cc2)c1=O` (stereo not drawn) [Itraconazole]: the MIC50 in data set [5] worked out at 0.125 µg/mL (≈ 0.177 µM); in data set [6], 0.015 µg/mL (≈ 0.0213 µM). For the same compound, the figures for the MIC90 in data set [5], in data set [6] and in data set [7] were 0.25 µg/mL (≈ 0.354 µM), 0.125 µg/mL (≈ 0.177 µM) and 0.0625 µg/mL (≈ 0.0886 µM), respectively. Besides, the minimum inhibitory concentration (MIC) stood at 0.177 µg/mL (≈ 0.251 µM) in data set [5] (read-out: MIC geometric mean), 0.025 µg/mL (≈ 0.0354 µM) in data set [6] (read-out: MIC geometric mean) and 0.031 µg/mL (≈ 0.0439 µM) in data set [7] (read-out: MIC geometric mean).

A word on the MIC50: it is the lowest concentration that inhibits either 50% of growth or 50% of the strains tested, depending on the study. A low value points to higher susceptibility. Usually MIC90 stands for the lowest concentration that inhibits either 90% of growth or 90% of the strains tested, depending on the study. In general, MIC refers to the smallest concentration in the dilution series that meets the test's criterion for growth inhibition.
